Measured values from patent US10316049B2, “Tank-binding kinase inhibitor compounds” (Gilead Sciences, Inc., priority 2015, dated 2019).

What was measured:
IKKε = target: T1, IKKε (Homo sapiens, UniProt Q14164); test: TR-FRET enzymatic activity assay, IKKε; assay type: biochemical; settings: read-out: IKKϵ IC50; also: full length recombinant IKKε at 0.3 nM
T1 construct: TBK1 and IKKε were expressed and purified as full length recombinant proteins; made in house
T1 sequence (Q14164 1-716): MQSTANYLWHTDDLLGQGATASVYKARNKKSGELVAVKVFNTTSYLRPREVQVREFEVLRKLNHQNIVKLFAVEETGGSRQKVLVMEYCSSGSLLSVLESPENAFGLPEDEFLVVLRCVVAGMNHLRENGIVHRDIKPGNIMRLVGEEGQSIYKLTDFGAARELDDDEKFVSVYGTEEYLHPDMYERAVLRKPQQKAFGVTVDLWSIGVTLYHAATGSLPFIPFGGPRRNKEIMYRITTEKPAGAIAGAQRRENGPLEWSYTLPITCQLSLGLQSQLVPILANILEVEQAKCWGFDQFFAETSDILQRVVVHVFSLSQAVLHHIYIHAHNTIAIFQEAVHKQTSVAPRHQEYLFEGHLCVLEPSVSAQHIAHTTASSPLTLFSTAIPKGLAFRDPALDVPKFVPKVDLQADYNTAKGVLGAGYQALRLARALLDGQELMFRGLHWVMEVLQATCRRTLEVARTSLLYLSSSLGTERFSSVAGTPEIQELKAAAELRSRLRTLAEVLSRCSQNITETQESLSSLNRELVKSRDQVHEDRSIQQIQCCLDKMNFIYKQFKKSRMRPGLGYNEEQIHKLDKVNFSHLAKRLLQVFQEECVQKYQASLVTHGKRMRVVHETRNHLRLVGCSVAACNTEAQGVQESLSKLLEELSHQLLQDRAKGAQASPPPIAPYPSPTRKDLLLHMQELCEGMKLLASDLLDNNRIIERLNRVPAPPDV
In short: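 Full-length recombinant IKKε phosphorylated a biotinylated Ser/Thr peptide for 240 min at 25 °C; EDTA stop. Phospho-peptide detected by TR-FRET with streptavidin-XL665 (125 nM) and Eu-cryptate anti-phospho antibody. Normalised to staurosporine and DMSO controls; IC50 from four-parameter fit, geometric mean of ≥4 runs.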

TBK1 = target: T2, TBK1 (Homo sapiens, UniProt Q9UHD2); test: TR-FRET enzymatic activity assay, TBK1; assay type: biochemical; also: full length recombinant TBK1 at 2.5 nM
T2 construct: TBK1 and IKKε were expressed and purified as full length recombinant proteins; made in house
T2 sequence (Q9UHD2 1-729): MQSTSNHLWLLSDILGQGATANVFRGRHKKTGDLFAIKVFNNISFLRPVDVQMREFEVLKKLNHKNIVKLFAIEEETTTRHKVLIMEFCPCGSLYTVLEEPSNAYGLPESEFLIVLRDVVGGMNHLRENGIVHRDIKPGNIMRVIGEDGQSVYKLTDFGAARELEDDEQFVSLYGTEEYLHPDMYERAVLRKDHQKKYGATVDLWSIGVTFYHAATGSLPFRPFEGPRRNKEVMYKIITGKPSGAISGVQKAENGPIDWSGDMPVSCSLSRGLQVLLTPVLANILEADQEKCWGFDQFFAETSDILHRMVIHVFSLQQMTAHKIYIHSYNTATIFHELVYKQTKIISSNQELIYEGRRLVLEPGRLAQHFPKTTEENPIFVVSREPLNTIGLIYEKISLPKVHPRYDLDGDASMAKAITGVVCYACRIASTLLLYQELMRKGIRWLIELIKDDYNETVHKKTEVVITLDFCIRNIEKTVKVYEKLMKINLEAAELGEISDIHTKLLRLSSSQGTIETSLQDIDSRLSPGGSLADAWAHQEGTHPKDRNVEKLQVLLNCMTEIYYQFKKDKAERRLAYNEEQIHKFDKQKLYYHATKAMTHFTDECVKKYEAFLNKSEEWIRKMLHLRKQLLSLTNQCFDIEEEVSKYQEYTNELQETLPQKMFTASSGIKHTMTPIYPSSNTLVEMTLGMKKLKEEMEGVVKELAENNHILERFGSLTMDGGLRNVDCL
In short: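 Full-length recombinant enzymes phosphorylated a biotinylated Ser/Thr peptide for 240 min at 25 °C, stopped with EDTA. Phosphopeptide detected by TR-FRET (streptavidin XL665, Eu-cryptate anti-phospho antibody). IC50 from four-parameter fits normalized to 1 μM staurosporine and DMSO controls, as geometric means of at least four determinations.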

| Structure (SMILES) | IC50 (IKKε) [nM] | IC50 (TBK1) [nM] |
| --- | --- | --- |
| N#Cc1cc(-c2ccnc(NC(=O)[C@@H]3C[C@H]3c3cccnc3)c2)ccc1O[C@H]1CCN(C(=O)CO)C[C@H]1F [Example 135, (1R,2R)—N-(4-(3-cyano-4-(((3R,4S)-3-fluoro-1-(2-hydroxyacetyl)piperidin-4-yl)oxy)phenyl)pyridin-2-yl)-2-(pyridin-3-yl)cyclopropane-1-carboxamide] | 27.4 | 21.4 |
| N#Cc1cc(-c2ccnc(NC(=O)[C@H]3C[C@@H]3c3cccnc3)c2)ccc1O[C@H]1CCN(C(=O)CO)C[C@H]1F [Example 136, (1S,2S)—N-(4-(3-cyano-4-(((3R,4S)-3-fluoro-1-(2-hydroxyacetyl)piperidin-4-yl)oxy)phenyl)pyridin-2-yl)-2-(pyridin-3-yl)cyclopropane-1-carboxamide] | 10.4 | 3.5 |
| N#Cc1cc(-c2ccnc(NC(=O)[C@@H]3C[C@H]3c3cccnc3)c2)ccc1O[C@H]1CCN(C(=O)[C@@H](O)CO)CC1(F)F [Example 139, (1R,2R)—N-(4-(3-cyano-4-(((S)-1-((S)-2,3-dihydroxypropanoyl)-3,3-difluoropiperidin-4-yl)oxy)phenyl)pyridin-2-yl)-2-(pyridin-3-yl)cyclopropane-1-carboxamide] | 16.1 | 15.8 |
| N#Cc1cc(-c2ccnc(NC(=O)[C@H]3C[C@@H]3c3cccnc3)c2)ccc1O[C@H]1CCN(C(=O)[C@@H](O)CO)CC1(F)F [Example 140, (1S, 2S)—N-(4-(3-cyano-4-(((S)-1-((S)-2,3-dihydroxypropanoyl)-3,3-difluoropiperidin-4-yl)oxy)phenyl)pyridin-2-yl)-2-(pyridin-3-yl)cyclopropane-1-carboxamide] | 5.9 | 4.6 |
| N#Cc1cc(-c2ccnc(NC(=O)[C@@H]3C[C@H]3c3cccnc3)c2)ccc1O[C@H]1CCN(C(=O)CO)CC1(F)F [Example 141, (1R,2R)—N-(4-(3-cyano-4-(((S)-3,3-difluoro-1-(2-hydroxyacetyl)piperidin-4-yl)oxy)phenyl)pyridin-2-yl)-2-(pyridin-3-yl)cyclopropane-1-carboxamide] | 11.2 | 17.3 |
| N#Cc1cc(-c2ccnc(NC(=O)[C@H]3C[C@@H]3c3cccnc3)c2)ccc1O[C@H]1CCN(C(=O)CO)CC1(F)F [Example 142, (1S,2S)—N-(4-(3-cyano-4-(((S)-3,3-difluoro-1-(2-hydroxyacetyl)piperidin-4-yl)oxy)phenyl)pyridin-2-yl)-2-(pyridin-3-yl)cyclopropane-1-carboxamide] | 6 | 5.7 |
| Cn1cc([C@@H]2C[C@H]2C(=O)Nc2cc(-c3ccc(O[C@H]4CCN(C(=O)CO)C[C@H]4F)c(C#N)c3)ncn2)cn1 [Example 143, (1,2-Trans)-N-(6-(3-cyano-4-(((3R,4S)-3-fluoro-1-(2-hydroxyacetyl)piperidin-4-yl)oxy)phenyl)pyrimidin-4-yl)-2-(1-methyl-1H-pyrazol-4-yl)cyclopropane-1-carboxamide] | 44.3 | 19.9 |
| N#Cc1cc(-c2cc(NC(=O)[C@@H]3C[C@H]3c3cccnc3)ncn2)ccc1O[C@H]1CCN(C(=O)[C@@H](O)CO)CC1(F)F [Example 144, (1,2-Trans)-N-(6-(3-cyano-4-(((S)-1-((S)-2,3-dihydroxypropanoyl)-3,3-difluoropiperidin-4-yl)oxy)phenyl)pyrimidin-4-yl)-2-(pyridin-3-yl)cyclopropane-1-carboxamide] | 9 | 7.1 |
| Cn1cnc(C2CC2C(=O)Nc2cc(-c3ccc(O[C@H]4CCN(C(=O)CO)C[C@H]4F)c(C#N)c3)ccn2)n1 (stereo partly drawn) [Example 145, N-(4-(3-Cyano-4-(((3R,4S)-3-fluoro-1-(2-hydroxyacetyl)piperidin-4-yl)oxy)phenyl)pyridin-2-yl)-2-(1-methyl-1H-1,2,4-triazol-3-yl)cyclopropane-1-carboxamide] | > 1000 | > 1000 |
| Cn1cc([C@@H]2C[C@H]2C(=O)Nc2cc(-c3ccc(O[C@H]4CCN(C(=O)[C@@H](O)CO)C[C@H]4F)c(C#N)c3)ncn2)cn1 [Example 146, (1,2-Trans)-N-(6-(3-cyano-4-(((3R,4S)-1-((S)-2,3-dihydroxypropanoyl)-3-fluoropiperidin-4-yl)oxy)phenyl)pyrimidin-4-yl)-2-(1-methyl-1H-pyrazol-4-yl)cyclopropane-1-carboxamide] | 30.8 | 16.1 |
| N#Cc1cc(-c2cc(NC(=O)[C@@H]3C[C@H]3c3cccnc3)ncn2)ccc1O[C@H]1CCN(C(=O)CO)C[C@H]1F [Example 147, (1,2-Trans)-N-(6-(3-cyano-4-(((3R,4S)-3-fluoro-1-(2-hydroxyacetyl)piperidin-4-yl)oxy)phenyl)pyrimidin-4-yl)-2-(pyridin-3-yl)cyclopropane-1-carboxamide] | 36.5 | 15.7 |
| N#Cc1cc(-c2ccnc(NC(=O)[C@@H]3C[C@H]3c3cncnc3)c2)ccc1O[C@H]1CCN(C(=O)CO)C[C@H]1F [Example 149, (1,2-Trans)-N-(4-(3-cyano-4-(((3R,4S)-3-fluoro-1-(2-hydroxyacetyl)piperidin-4-yl)oxy)phenyl)pyridin-2-yl)-2-(pyrimidin-5-yl)cyclopropane-1-carboxamide] | 99.2 | 15.9 |
| N#Cc1cc(-c2cc(NC(=O)C3CC3)ncn2)ccc1O[C@H]1CCN(C(=O)[C@@H]2CCC(=O)N2)CC1(F)F [Example 152, N-(6-(3-cyano-4-(((S)-3,3-difluoro-1-((S)-5-oxopyrrolidine-2-carbonyl)piperidin-4-yl)oxy)phenyl)pyrimidin-4-yl)cyclopropanecarboxamide] | 53.3 | 9.4 |
| N#CCC(=O)N1CC[C@H](Oc2ccc(-c3cc(NC(=O)C4CC4)ncn3)cc2C#N)C(F)(F)C1 [Example 153, (S)—N-(6-(3-cyano-4-((1-(2-cyanoacetyl)-3,3-difluoropiperidin-4-yl)oxy)phenyl)pyrimidin-4-yl)cyclopropanecarboxamide] | 140 | 23.6 |
| N#Cc1cc(-c2cc(NC(=O)C3CC3)ncn2)ccc1O[C@H]1CCN(C(=O)CCO)CC1(F)F [Example 154, (S)—N-(6-(3-cyano-4-((3,3-difluoro-1-(3-hydroxypropanoyl)piperidin-4-yl)oxy)phenyl)pyrimidin-4-yl)cyclopropanecarboxamide] | 387 | 41.5 |
| N#Cc1cc(-c2cc(NC(=O)C3CC3)ncn2)ccc1O[C@H]1CCN(C(=O)[C@@H]2COC(=O)N2)CC1(F)F [Example 155, N-(6-(3-cyano-4-(((S)-3,3-difluoro-1-((S)-2-oxooxazolidine-4-carbonyl)piperidin-4-yl)oxy)phenyl)pyrimidin-4-yl)cyclopropanecarboxamide] | 52.6 | 7 |
| Cc1nnc([C@@H]2C[C@H]2C(=O)Nc2cc(-c3ccc(O[C@H]4CCN(C(=O)CO)C[C@H]4F)c(C#N)c3)ccn2)o1 [Example 156, Trans-N-(4-(3-cyano-4-(((3R,4S)-3-fluoro-1-(2-hydroxyacetyl)piperidin-4-yl)oxy)phenyl)pyridin-2-yl)-2-(5-methyl-1,3,4-oxadiazol-2-yl)cyclopropane-1-carboxamide] | 41 | 36.6 |
| N#Cc1cc(-c2ccnc(NC(=O)C3CC3)c2)ccc1O[C@H]1CCN(C(=O)[C@@H](O)CO)CC1(F)F [Example 157, N-(4-(3-cyano-4-(((S)-1-((S)-2,3-dihydroxypropanoyl)-3,3-difluoropiperidin-4-yl)oxy)phenyl)pyridin-2-yl)cyclopropanecarboxamide] | 4.7 | 4.4 |
